Test results reported in PubChem BioAssay (NCI).
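48-hour exposure; five concentrations; linearly interpolated endpoints. The concentration for full growth arrest is given as TGI.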

Legend:
Test in all cases: growth of human tumour cells (NCI), 48 h
[1] = test system: UO-31 renal
[2] = test system: HCT-15 colon
[3] = test system: OVCAR-3 ovarian
[4] = test system: OVCAR-4 ovarian
[5] = test system: A498 renal
[6] = test system: IGROV1 ovarian
[7] = test system: NCI/ADR-RES ovarian
[8] = test system: RPMI-8226 leukemia
[9] = test system: SK-MEL-2 melanoma
[10] = test system: LOX IMVI melanoma
[11] = test system: SR leukemia
[12] = test system: CCRF-CEM leukemia
[13] = test system: 786-0 renal
[14] = test system: M14 melanoma
[15] = test system: SW-620 colon
[16] = test system: T-47D breast

N#CC(C#N)=C(N)/C(C#N)=C/c1cc(O)c(O)c(Br)c1
TGI [1]: > 100 µM
TGI [2]: > 100 µM
TGI [3]: 93.6 µM
TGI [4]: > 100 µM
TGI [5]: > 100 µM
TGI [6]: > 100 µM
TGI [7]: > 100 µM
TGI [8]: > 100 µM
TGI [9]: > 100 µM
TGI [10]: > 100 µM
TGI [11]: > 100 µM
TGI [12]: > 100 µM
TGI [13]: > 100 µM
TGI [14]: > 100 µM
TGI [15]: > 100 µM
TGI [16]: > 100 µM

CCCN(CCCCN1C(=O)c2ccccc2C1=O)CC1COc2ccccc2O1 (configuration not stated)
TGI [1]: > 100 µM
TGI [2]: > 100 µM
TGI [3]: > 100 µM
TGI [4]: > 100 µM
TGI [5]: > 100 µM
TGI [6]: > 100 µM
TGI [7]: > 100 µM
TGI [8]: 84.9 µM
TGI [9]: > 100 µM
TGI [10]: > 100 µM
TGI [11]: 77.6 µM
TGI [12]: 88.8 µM
TGI [13]: > 100 µM
TGI [14]: > 100 µM
TGI [15]: > 100 µM
TGI [16]: > 100 µM

COc1cc2c(cc1OC)C1(c3ccccc3)CN(C2)Cc2cc(OC)c(OC)cc21
TGI [1]: > 100 µM
TGI [2]: > 100 µM
TGI [3]: > 100 µM
TGI [4]: 77.6 µM
TGI [5]: > 100 µM
TGI [6]: > 100 µM
TGI [7]: 74.9 µM
TGI [8]: 80.2 µM
TGI [9]: 70.1 µM
TGI [10]: > 100 µM
TGI [11]: 32.2 µM
TGI [12]: 61.4 µM
TGI [13]: > 100 µM
TGI [14]: 59.6 µM
TGI [15]: > 100 µM
TGI [16]: > 100 µM

COP1(=O)NCc2ncccc2O1 (configuration not stated)
TGI [1]: > 100 µM
TGI [2]: > 100 µM
TGI [3]: > 100 µM
TGI [4]: > 100 µM
TGI [5]: > 100 µM
TGI [6]: > 100 µM
TGI [7]: > 100 µM
TGI [8]: > 100 µM
TGI [9]: > 100 µM
TGI [10]: > 100 µM
TGI [11]: > 100 µM
TGI [12]: > 100 µM
TGI [13]: > 100 µM
TGI [14]: > 100 µM
TGI [15]: > 100 µM
TGI [16]: > 100 µM

O=C(/C=C(\Nc1ccccc1O)c1ccccc1)C(=O)NC12CC3CC(CC(C3)C1)C2
TGI [1]: > 10 µM
TGI [2]: > 10 µM
TGI [3]: > 10 µM
TGI [4]: > 10 µM
TGI [5]: > 10 µM
TGI [6]: > 10 µM
TGI [7]: > 10 µM
TGI [8]: > 10 µM
TGI [9]: > 10 µM
TGI [10]: > 10 µM
TGI [11]: > 10 µM
TGI [12]: > 10 µM
TGI [13]: > 10 µM
TGI [14]: > 10 µM
TGI [15]: > 10 µM
TGI [16]: > 10 µM

COc1cc(C(N)=O)cc(NC(=O)/C=C/c2ccccc2)c1OC
TGI [1]: > 100 µM
TGI [2]: > 100 µM
TGI [3]: > 100 µM
TGI [4]: > 100 µM
TGI [5]: > 100 µM
TGI [6]: > 100 µM
TGI [7]: > 100 µM
TGI [8]: > 100 µM
TGI [9]: > 100 µM
TGI [10]: > 100 µM
TGI [11]: > 100 µM
TGI [12]: > 100 µM
TGI [13]: > 100 µM
TGI [14]: > 100 µM
TGI [15]: > 100 µM
TGI [16]: > 100 µM

c1ccc2sc(C3(N4CCCCC4)CCCCCC3)cc2c1
TGI [1]: 60.8 µM
TGI [2]: 34.8 µM
TGI [3]: 37.2 µM
TGI [4]: 76 µM
TGI [5]: 33.7 µM
TGI [6]: 52.7 µM
TGI [7]: 45.8 µM
TGI [8]: 28.7 µM
TGI [9]: 68.4 µM
TGI [10]: 34.6 µM
TGI [11]: 36.7 µM
TGI [12]: 26.1 µM
TGI [13]: 47.4 µM
TGI [14]: 67.2 µM
TGI [15]: 25 µM
TGI [16]: 31.6 µM

CC1OC(OC2C(O)COC(OC3C(C)OC(OC4C(OC(=O)[C@]56CCC(C)(C)C[C@@H]5C5=CCC7[C@@]8(C)C[C@H](O)[C@H](OC9OC(CO)C(O)C(OC%10OC(CO)C(O)C(O)C%10O)C9O)[C@@](C)(CO)[C@@H]8CC[C@@]7(C)[C@]5(C)CC6)OCC(O)C4O)C(O)C3OC3OCC(O)C(O)C3O)C2O)C(O)C(O)C1O (some centres not stated)
TGI [1]: 9.92 µM
TGI [2]: 28.2 µM
TGI [3]: 27.2 µM
TGI [4]: 29.8 µM
TGI [5]: 5 µM
TGI [6]: 24.5 µM
TGI [7]: 26.4 µM
TGI [8]: 76.8 µM
TGI [9]: 11.7 µM
TGI [10]: 29.6 µM
TGI [11]: 27 µM
TGI [12]: 25.2 µM
TGI [13]: 17.7 µM
TGI [14]: 3.58 µM
TGI [15]: 20.6 µM
TGI [16]: 14 µM

C[C@@H](NC(=O)OC1C=CC2(CC1)C(=O)N(C)c1ccccc12)c1cccc2ccccc12 (some centres not stated)
TGI [1]: > 25 µM
TGI [2]: > 25 µM
TGI [3]: > 25 µM
TGI [4]: > 25 µM
TGI [5]: > 25 µM
TGI [6]: > 25 µM
TGI [7]: > 25 µM
TGI [8]: > 25 µM
TGI [9]: > 25 µM
TGI [10]: > 25 µM
TGI [11]: > 25 µM
TGI [12]: > 25 µM
TGI [13]: > 25 µM
TGI [14]: > 25 µM
TGI [15]: > 25 µM
TGI [16]: > 25 µM

N=C(N)n1[nH]c2c(c1=O)CCCC2
TGI [1]: > 100 µM
TGI [2]: > 100 µM
TGI [3]: > 100 µM
TGI [4]: > 100 µM
TGI [5]: > 100 µM
TGI [6]: > 100 µM
TGI [7]: > 100 µM
TGI [8]: > 100 µM
TGI [9]: > 100 µM
TGI [10]: > 100 µM
TGI [11]: > 100 µM
TGI [12]: > 100 µM
TGI [13]: > 100 µM
TGI [14]: > 100 µM
TGI [15]: > 100 µM
TGI [16]: > 100 µM

CN(C)CCCNc1nnc(NCCCN(C)C)c2c(=O)c3sccc3[nH]c12
TGI [1]: 9.15 µM
TGI [2]: > 91.5 µM
TGI [3]: > 100 µM
TGI [4]: 23.2 µM
TGI [5]: > 100 µM
TGI [6]: > 100 µM
TGI [7]: > 100 µM
TGI [8]: 57.2 µM
TGI [9]: 37.8 µM
TGI [10]: 54.4 µM
TGI [11]: > 30.5 µM
TGI [12]: > 50.2 µM
TGI [13]: > 49.1 µM
TGI [14]: 23.9 µM
TGI [15]: > 72.2 µM
TGI [16]: > 51.5 µM

CC(C)(C)OC(=O)NC(Cc1cnc[nH]1)C(=O)N1CCCC1C(N)=O (configuration not stated)
TGI [1]: > 100 µM
TGI [2]: > 100 µM
TGI [3]: > 100 µM
TGI [4]: > 100 µM
TGI [5]: > 100 µM
TGI [6]: > 100 µM
TGI [7]: > 100 µM
TGI [8]: > 100 µM
TGI [9]: > 100 µM
TGI [10]: > 100 µM
TGI [11]: > 100 µM
TGI [12]: > 100 µM
TGI [13]: > 100 µM
TGI [14]: > 100 µM
TGI [15]: > 100 µM
TGI [16]: > 100 µM

CCCC(=O)OC[n+]1cccc(-c2c(COC(=O)NC(C)C)c(COC(=O)NC(C)C)c3n2CCC3)c1
TGI [1]: > 100 µM
TGI [2]: > 100 µM
TGI [3]: > 100 µM
TGI [4]: > 100 µM
TGI [5]: > 61.6 µM
TGI [6]: > 100 µM
TGI [7]: > 100 µM
TGI [8]: > 100 µM
TGI [9]: > 100 µM
TGI [10]: > 100 µM
TGI [11]: > 100 µM
TGI [12]: > 66.3 µM
TGI [13]: > 100 µM
TGI [14]: > 100 µM
TGI [15]: > 100 µM
TGI [16]: > 100 µM

COC(=O)C(Cc1ccccc1I)C1=CCC2(CC1)OCCO2 (configuration not stated)
TGI [1]: 66.3 µM
TGI [2]: > 100 µM
TGI [3]: 81.3 µM
TGI [4]: > 100 µM
TGI [5]: > 100 µM
TGI [6]: > 100 µM
TGI [7]: 55.8 µM
TGI [8]: > 100 µM
TGI [9]: 75.4 µM
TGI [10]: 58.7 µM
TGI [11]: 52 µM
TGI [12]: 81 µM
TGI [13]: > 100 µM
TGI [14]: 50.4 µM
TGI [15]: > 100 µM
TGI [16]: 39.7 µM

Oc1c(-c2ccccc2)sc2ccccc12
TGI [1]: 84.6 µM
TGI [2]: > 100 µM
TGI [3]: 36.2 µM
TGI [4]: > 100 µM
TGI [5]: 88.4 µM
TGI [6]: > 100 µM
TGI [7]: > 100 µM
TGI [8]: 43.5 µM
TGI [9]: 41 µM
TGI [10]: 32.3 µM
TGI [11]: 34.9 µM
TGI [12]: 62.5 µM
TGI [13]: 59 µM
TGI [14]: 50.6 µM
TGI [15]: > 100 µM
TGI [16]: 54.4 µM

Cn1cc(C[C@@H](N)C(=O)O)c2ccccc21
TGI [1]: > 100 µM
TGI [2]: > 100 µM
TGI [3]: > 100 µM
TGI [4]: > 100 µM
TGI [5]: > 100 µM
TGI [6]: > 100 µM
TGI [7]: > 100 µM
TGI [8]: > 100 µM
TGI [9]: > 100 µM
TGI [10]: > 100 µM
TGI [11]: > 100 µM
TGI [12]: > 100 µM
TGI [13]: > 100 µM
TGI [14]: > 100 µM
TGI [15]: > 100 µM
TGI [16]: > 100 µM

O=c1cc(-c2ccccc2)oc2ccc(Oc3nnnn3-c3ccccc3)cc12
TGI [1]: > 100 µM
TGI [2]: > 100 µM
TGI [3]: > 100 µM
TGI [4]: > 100 µM
TGI [5]: > 100 µM
TGI [6]: > 100 µM
TGI [7]: > 100 µM
TGI [8]: > 100 µM
TGI [9]: > 84.5 µM
TGI [10]: > 100 µM
TGI [11]: > 100 µM
TGI [12]: > 100 µM
TGI [13]: > 100 µM
TGI [14]: > 100 µM
TGI [15]: > 100 µM
TGI [16]: > 100 µM
